Measurements taken from US11213563B2, “Polypeptide and use thereof” (Genoimmune Therapeutics Co., Ltd., priority 2016, dated 2022).

What was measured:
[1] = system: human non-small cell lung adenocarcinoma cell line H2087-polypeptide FILDGLYSV; experiment: Polypeptide-specific DC-CTL vaccine in subcutaneous tumor-modeled NOD/SCID mice; assay type: in vivo; details: CTLs stimulated by DCs loaded with the polypeptide, i.v. 1×10^8 cells/mouse; vs wild-type CTL group
Protocol: After isolated with Ficoll solution from 600 to 900 ml anticoagulant peripheral blood from a healthy volunteer, the collected PBMCs in a concentration of 2×10^7 cells/0.5 ml were intraperitoneally injected into each of 300 NOD SCID mice without immune leakage, so as to reconstruct a human immune system in the NOD SCID mice, with the mice after 4 weeks selected for subsequent inoculation of the human non-small cell lung adenocarcinoma cell line H2087-polypeptide […] obtained in 6.2.
The human non-small cell lung adenocarcinoma cell line H2087-polypeptide […] (SEQ ID NO:1) obtained in 6.2 was incubated in DMEM medium containing 10% fetal calf serum, 100 U/mL penicillin and 100 U/mL streptomycin in an incubator under 37° C. and 5% CO2, and then the cells were centrifuged at 3000 rpm for collection. The collected cells were washed with sterile physiological saline three times, and then diluted appropriately. To 40 μl tumor cell suspension, 10 μl 0.4% […] was added for staining, subsequently the tumor cell suspension in a concentration of 1×10^8 cells/ml was prepared after counting under microscope. 100 μl of the tumor cell suspension was inoculated into each of the NOD/SCID mice by subcutaneous injection at 4 weeks post immune reconstruction in 6.3, with daily observation of the presence/absence of infection at inoculation sites, the increase/decrease of tumor size (in the case of presence of a tumor), and measurement of the major axis (a) and the minor axis (b) of a tumor by a vernier caliper every 2 or 3 days (where the tumor size=a×b×b/2).
The number of T lymphocytes was counted at day 0, 7, 14 and 21 post incubation, for calculation of cell proliferation index (PI), where PI=cell number after proliferation/cell number seeded. The cytotoxic T lymphocytes (CTLs) were harvested at day 21 post incubation, which were suspended in 0.2 ml physiological saline, and then injected intravenously to the subcutaneous tumor-modeled NOD/SCID mice via the tail in an amount of 1×10^8 cells/mouse. The vital signs of the mice were observed after administration, and the major axis (a) and the minor axis (b) of a tumor were measured by a vernier caliper every 2 days for calculation of tumor size.

CD8^+ T cells [2] = experiment: IFN-γ ELISPOT of CD8+ T cell immune response activated by polypeptide; assay type: cell-based, human; details: for Conclusion (immunogenicity): ELISPOT spot ratio >2 criterion; for Number of spots produced by mutant polypeptide or each of its variants / Number of spots produced by wild-type polypeptide: IFN-γ ELISPOT, T cells activated by the listed polypeptide; for Number of spots produced by mutant polypeptide or each of its variants: T2 cells loaded with mutant polypeptide; for Number of spots produced by wild-type polypeptide: T2 cells loaded with wild-type polypeptide FILDGSYSV; for Ratio of mutant polypeptide to wild-type polypeptide: spot number ratio, >2 indicates immunogenicity
From the text: The mutant polypeptide with immunogenicity should meet the following requirement:
Spots number of mutant polypeptide/spots number of wild-type polypeptide>2,
After specifically recognizing the complex of HLA-A0201 and the mutant polypeptide, the polypeptide specific-CD8^+T cell is activated and secretes IFN-γ, which will be captured by the firstly antibody coated on the ELISPOT plate and further be bound by an enzyme-coupled secondly antibody, and finally developed by addition of a substrate which can be catalyzed by the enzyme, thus forming colored spots. The number of spots produced represents the number of the IFN-γ secreted by the activated CD8^+T cell.

T2 cells = experiment: LDH release assay of CD8+ T cell killing activity; assay type: cell-based, human; parameters: Killing efficiency: concentration or dose not given beside the values; details: for Killing efficiency: 4 hours; for Killing of T2 cells loaded with the mutant polypeptide by activated T cells / Killing of T2 cells loaded with the wild-type polypeptide by activated T cells: ratio of effector cells to target cells of 1:1 or 1:10 (so in the source)
Protocol: The mixture of cells collected in the example 3 were incubated with the T2 cells loaded with the mutant polypeptide (depicted in […], SEQ ID NO:1) or the wild-type polypeptide (depicted in […], SEQ ID NO:7), or the T2 cells without polypeptide respectively for 4 hours; after which […], cell supernatant collected from each well was individually added into 50 μL substrate mixture of LDH for catalyzation of the LDH substrate, and the absorbance at wavelengths of 490 nm and 680 nm (as a reference) is measured, where a maximum release well, a volume correction well, a medium alone well, a spontaneous release well of effector cell and a spontaneous release well of target well as different control wells, as well effector cells (T cells) and target cells (T2 cell) in different ratios as experiment wells are set in triplicate.
The killing efficiency of CD8^+ T cells to T2 cells is calculated by the following formula: Killing efficiency (%)=(experiment well−spontaneous release well of effector cell−spontaneous release well of target well+medium alone well)/(maximum release well of target well-volume correction well-spontaneous release well of target well+medium alone well)×100%.

CD8^+ T cells [3] = experiment: In vitro stimulation of CD8+ T cells by polypeptide-loaded mature DCs, cell counting; assay type: cell-based, human; details: CD8+ T cells with polypeptide-specific mature DCs, day 10; 2.5 × 10^6 cells before incubation
Protocol: Peripheral blood mononuclear cells (PBMCs) in 100 mL peripheral blood obtained from a HLA-A0201-positive healthy volunteer were isolated using the Ficoll solution, where CD8^+ T cells among the PBMCs were isolated with CD8 magnetic beads, and monocytes among the PBMCs were incubated by an adherence method.
The CD8^+ T cells from the volunteer in a well were incubated with the mature DCs obtained, along with IL-21, with addition of IL-2 and IL-7 after 3 days' culture and addition IL-2 and IL-7 again at day 5 and day 7 respectively, after which the collected mixture of cells were counted on day 10, for use in the next enzyme-linked immune-spot assay (ELISPOT) and lactate dehydrogenase (LDH) assay.

[4] = T cells activated by listed polypeptide + T2 cells loaded with mutant FILDGLYSV, effector:target 1:1
[5] = T cells activated by listed polypeptide + T2 cells loaded with mutant FILDGLYSV, effector:target 10:1
[6] = T cells activated by listed polypeptide + T2 cells loaded with wild-type FILDGSYSV, effector:target 1:1
[7] = T cells activated by listed polypeptide + T2 cells loaded with wild-type FILDGSYSV, effector:target 10:1

| Sequence | Mouse survival period [1] | Tumor growth [1] | Conclusion (immunogenicity) (CD8^+ T cells [2]) | Number of spots produced by mutant polypeptide or each of its variants (CD8^+ T cells [2]) | Number of spots produced by wild-type polypeptide (CD8^+ T cells [2]) | Ratio of mutant polypeptide to wild-type polypeptide (CD8^+ T cells [2]) | Killing efficiency (T2 cells; [4]) | Killing efficiency (T2 cells; [5]) | Killing efficiency (T2 cells; [6]) | Killing efficiency (T2 cells; [7]) | Killing of T2 cells loaded with the mutant polypeptide by activated T cells (T2 cells) | Killing of T2 cells loaded with the wild-type polypeptide by activated T cells (T2 cells) | Total number of cells in the well after incubation (CD8^+ T cells [3]) |
| --- | --- | --- | --- | --- | --- | --- | --- | --- | --- | --- | --- | --- | --- |
| FILDGLYSL [mutant polypeptide's variant, Leucine at position 9] | prolonging mouse survival period significantly | inhibiting tumor growth | immunogenic | 313 | 37 | 8.46 | 8.09% | 38.60% | 3.12% | 4.71% | capable of killing | could not kill | 1.35 × 10^7 |
| FILDGLYSV [mutant polypeptide from COL21A1, Serine at position 45 mutated into Leucine] | prolonging mouse survival period significantly | inhibiting tumor growth | immunogenic | 296 | 29 | 10.2 | 7.33% | 37.39% | 2.07% | 4.93% | capable of killing | could not kill | 1.22 × 10^7 |
| FLLDGLYSL [mutant polypeptide's variant, Leucine at positions 2 and 9] | prolonging mouse survival period significantly | inhibiting tumor growth | immunogenic | 279 | 24 | 11.62 | 7.05% | 35.15% | 3.56% | 6.21% | capable of killing | could not kill | 1.03 × 10^7 |
| FLLDGLYSV [mutant polypeptide's variant, Leucine at position 2] | prolonging mouse survival period significantly | inhibiting tumor growth | immunogenic | 301 | 42 | 7.17 | 8.38% | 39.16% | 2.85% | 5.43% | capable of killing | could not kill | 1.42 × 10^7 |
| FMLDGLYSL | prolonging mouse survival period significantly | inhibiting tumor growth | immunogenic | 319 | 35 | 9.11 | 8.96% | 40.13% | 3.13% | 5.83% | capable of killing | could not kill | 1.66 × 10^7 |
| FMLDGLYSV | prolonging mouse survival period significantly | inhibiting tumor growth | immunogenic | 335 | 50 | 6.7 | 9.15% | 42.10% | 2.37% | 5.63% | capable of killing | could not kill | 1.71 × 10^7 |
